Laboratory results from PMC7294595 (Bioorganic & medicinal chemistry, 2020).
Where a SMILES comes first, the peptide text is derived from it. [ ]: non-standard residue; d: D form. pY = N[C@@H](Cc1ccc(OP(=O)(O)O)cc1)C(=O)O

Columns and labels:
[1] = target: STAT3-gp130 phosphopeptide interaction (STAT3 SH2 domain) (Homo sapiens, UniProt P40763); experiment: Competition fluorescence polarization assay
STAT3:DNA binding = conditions: electrophoretic mobility shift assay measuring STAT3:DNA binding; cited from earlier work

STAT3-gp130 phosphopeptide interaction (STAT3 SH2 domain), sequence (P40763 127-711): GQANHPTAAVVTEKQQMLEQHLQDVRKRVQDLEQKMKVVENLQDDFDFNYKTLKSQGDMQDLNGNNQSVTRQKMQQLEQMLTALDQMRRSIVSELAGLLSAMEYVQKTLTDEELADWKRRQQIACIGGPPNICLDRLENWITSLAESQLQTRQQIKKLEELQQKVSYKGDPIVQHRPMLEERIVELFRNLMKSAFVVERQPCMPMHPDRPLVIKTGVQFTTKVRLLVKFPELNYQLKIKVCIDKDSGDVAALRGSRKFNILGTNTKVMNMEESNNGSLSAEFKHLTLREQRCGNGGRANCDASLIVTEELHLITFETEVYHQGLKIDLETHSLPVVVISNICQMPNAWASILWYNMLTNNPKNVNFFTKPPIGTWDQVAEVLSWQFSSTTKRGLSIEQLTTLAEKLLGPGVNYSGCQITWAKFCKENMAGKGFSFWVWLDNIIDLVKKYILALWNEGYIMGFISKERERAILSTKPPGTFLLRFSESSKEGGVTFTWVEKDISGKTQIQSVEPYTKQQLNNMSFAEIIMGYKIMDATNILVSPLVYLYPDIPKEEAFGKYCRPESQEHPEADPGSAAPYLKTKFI

Row | Compound | IC50 [1] [nM] | IC50 (STAT3:DNA binding) [nM]
1 | CC(=O)NCC(=O)N[C@@H](Cc1ccc(OP(=O)(O)O)cc1)C(=O)N[C@@H](CC(C)C)C(=O)N1CCC[C@H]1C(=O)N[C@@H](CCC(N)=O)C(=O)N[C@H](C(=O)N[C@H](C(N)=O)C(C)C)[C@@H](C)O [ac-pTyr] (Ac-G[pY]LPQTV-NH2) | 610 | –
2 | Ac-G[pY]LPQTV-NH2 [gp130-derived phosphopeptide] | – | 150
